Series [1] can be described thus: Apparent permeability of compound in phosphate buffer by PAMPA assay. Format: ADME. For orientation: PAMPA measures passive passage across an artificial lipid membrane.
The nature of series [2]: Intrinsic clearance in human liver microsomes. Format: ADME, Microsome. The settings on record: read-out: CLH.
Another series has as its target Collagenase 3 (Homo sapiens, UniProt P45452). Nature of the series: Binding affinity to full length human recombinant MMP-13 using Mca-PLGL-Dpa-AR-NH2 as fluorogenic peptide substrate assessed as inhibition constant.
Series [3] is described as follows: Kinetic solubility of compound in PBS buffer at 500 uM incubated for 18 hrs by HPLC analysis. Format: physicochemical. The following applies: read-out: Kinetic_solubility.
A short description of series [4]: Metabolic stability in rat liver microsomes assessed as half life at 1 uM incubated for 60 mins by LC-MS/MS analysis. Format: ADME, Microsome. A general note: Liver microsomes are vesicles of endoplasmic reticulum, rich in cytochrome P450 enzymes.
Series [5] can be described thus: Metabolic stability in human liver microsomes assessed as half life at 1 uM incubated for 60 mins by LC-MS/MS analysis. It counts as ADME, Microsome.
The nature of series [6]: Metabolic stability in mouse liver microsomes assessed as half life at 1 uM incubated for 60 mins by LC-MS/MS analysis. It counts as ADME, Microsome.
The nature of series [7]: Inhibition of GST fused Bcl-xL (unknown origin) incubated for 5 min by TR-FRET assay. Set-up: species or system Homo sapiens. On the technique in general: Time-resolved FRET reads energy transfer from a long-lived donor to a nearby acceptor.
A short description of series [8]: Oral bioavailability in rat. The following applies: in vivo. It counts as ADME, organism-based.
Series [9] in a line: Half life in iv dosed rat. It counts as ADME, organism-based. The settings on record: in vivo.
Series [10] is described as follows: AUC in iv dosed rat. It counts as ADME, organism-based. The following applies: in vivo.
The nature of series [11]: Solubility of compound in PBS at pH 7.4. It counts as physicochemical.
The next series relates to Z-138. Put plainly: Growth inhibition of human Z138 cells. Format: functional.
Series [12] addresses Hepatitis C virus NS5B RNA-dependent RNA polymerase (Hepatitis C virus, UniProt Q8JXU8). Put plainly: Inhibition of Hepatitis C virus NS5B polymerase. Set-up: species or system Hepacivirus hominis.
Series [13] can be described thus: Tmax in rat at 5 mg/kg, po. Format: ADME, organism-based. The following applies: in vivo.
Series [14] can be described thus: AUC (0 to 24 hrs) in rat at 5 mg/kg, po. The settings on record: in vivo. Format: ADME, organism-based.
Series [15] concerns the target T1, Developmentally-regulated GTP-binding protein 1 (Homo sapiens, UniProt Q9Y295).
T1 sequence (Q9Y295 whole entry): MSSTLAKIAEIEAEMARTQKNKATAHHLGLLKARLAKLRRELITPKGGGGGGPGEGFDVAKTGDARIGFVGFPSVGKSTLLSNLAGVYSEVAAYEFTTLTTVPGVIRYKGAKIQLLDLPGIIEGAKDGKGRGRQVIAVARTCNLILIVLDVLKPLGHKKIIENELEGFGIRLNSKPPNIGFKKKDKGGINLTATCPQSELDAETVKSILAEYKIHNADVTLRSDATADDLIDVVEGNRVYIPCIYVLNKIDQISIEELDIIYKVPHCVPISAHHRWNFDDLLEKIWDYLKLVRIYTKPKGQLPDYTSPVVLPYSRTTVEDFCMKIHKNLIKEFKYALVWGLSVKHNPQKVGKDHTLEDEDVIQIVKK
Nature of the series: Inhibition of DRG1 (unknown origin).

The target of series [16] is Apoptosis regulator Bcl-2 (Homo sapiens, UniProt P10415). Nature of the series: Inhibition of Bcl-2 (unknown origin) by fluorescence polarization assay.
The nature of series [17]: Solubility of compound at pH 6.8. The following applies: buffer. Format: physicochemical.
A short description of series [18]: Intrinsic clearance in mouse liver microsomes. Format: ADME, Microsome. The settings on record: read-out: CLH.
Series [19] is described as follows: Oral bioavailability in monkey at 5 mg/kg. Format: ADME, organism-based, Macaca mulatta. The settings on record: rhesus monkey, in vivo.
The nature of series [20]: Oral bioavailability in rat at 2 mg/kg. It counts as ADME, organism-based. The settings on record: in vivo.
For a further series, the system named is Human orthopneumovirus. Nature of the series: Antiviral activity against RSV type B assessed as viral growth inhibition. Format: functional, organism-based. The settings on record: human respiratory syncytial virus.
Series [21] is described as follows: Intrinsic clearance in rat liver microsomes. Format: ADME, Microsome.

In brackets after ≈: the same amount, converted by molar mass. Some results are limits rather than exact numbers.

Apoptosis regulator Bcl-2, sequence (P10415 whole entry): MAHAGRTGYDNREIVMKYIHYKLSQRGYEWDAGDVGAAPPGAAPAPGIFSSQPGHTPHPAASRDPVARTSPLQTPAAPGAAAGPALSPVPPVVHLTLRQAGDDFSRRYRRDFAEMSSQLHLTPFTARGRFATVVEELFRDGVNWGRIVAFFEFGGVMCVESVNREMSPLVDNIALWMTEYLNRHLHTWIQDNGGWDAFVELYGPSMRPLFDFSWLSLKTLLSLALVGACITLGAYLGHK
Hepatitis C virus NS5B RNA-dependent RNA polymerase, sequence (Q8JXU8 whole entry): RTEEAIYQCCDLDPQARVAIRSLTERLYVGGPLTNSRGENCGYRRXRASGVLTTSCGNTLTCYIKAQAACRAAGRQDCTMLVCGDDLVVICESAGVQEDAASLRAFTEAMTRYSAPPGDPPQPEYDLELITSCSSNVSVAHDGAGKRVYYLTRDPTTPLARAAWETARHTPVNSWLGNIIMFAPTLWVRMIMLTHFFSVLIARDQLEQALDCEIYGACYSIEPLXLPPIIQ

In general, Papp refers to a coefficient for how fast a substance crosses the barrier. With `COC(C)(C)C#Cc1cnc2c(c1)[C@]1(COC(N)=N1)c1cc(-c3cccnc3F)ccc1O2`, in [1], the apparent permeability coefficient (Papp) stood at 12 ×10⁻⁶ cm/s.
Consider `COc1cc(C#N)ccc1COc1cccc(N2C=NN(Cc3nc4c(F)cc(C(=O)O)cc4n3C[C@@H]3CCO3)CC2)n1`, for which, in series [2], the microsomal CLint is 6 µL/min/mg.
As usually defined, the Ki is a measure of affinity in units of concentration, obtained from inhibition or displacement. The term half-life denotes the time needed for the level to fall by half in the phase considered. In the case of `CC(C)[C@H](NC(=O)c1ccc(-c2ccc(CCc3nc4c(c(=O)[nH]3)CCC4)c(F)c2)o1)C(=O)NC1COC1`, the inhibition constant (Ki) on Collagenase 3 is 12.2 nM. Further, the solubility kinetic at 18 h, 500 µM in series [3] stood at 76.4 µM (≈ 39.9 µg/mL). Further, the half-life at 1 µM stood at 1.03 h in series [4], 1.02 h in series [5] and 1.73 h in [6].
In general, IC50 refers to the concentration that gives 50% inhibition. `CC1(C)CCC(c2ccc(Cl)cc2)=C(CN2CCN(c3ccc(C(=O)NS(=O)(=O)c4ccc(N[C@H](CCN5CCOCC5)CSc5ccccc5)c(S(=O)(=O)C(F)(F)F)c4)cc3)CC2)C1` [NAVITOCLAX] returned an IC50 in series [7] of 8.2 nM.
By AUC is commonly meant the area under the concentration-time curve, a measure of exposure. The term solubility denotes the concentration that dissolves in the medium under given conditions. Regarding `COC(=O)Nc1nc2cc(C(=O)c3ccc(N(C)C4COC4)cc3)ccc2[nH]1`, the bioavailability in series [8] is 73.1%. The compound also had a half-life in series [9] of 5.5 h. This compound gave an area under the curve (AUC) in series [10] of 469 ng·h/mL. Also, the concentration in solution in [11] (solubility) was 137 µg/mL (≈ 360 µM).
A word on the GI50: it is the concentration at which growth is held to half of that of the control. Take `CC(C)[C@H](NC(=O)c1ccc(-c2ccc(CNc3nc4c(c(=O)[nH]3)CCC4)c(F)c2)o1)C(=O)NC1COC1`: the Ki at Collagenase 3 amounted to 10.3 nM. Further, the solubility kinetic at 18 h, 500 µM in series [3] was determined as 32.7 µM (≈ 17.1 µg/mL). The results for the half-life at 1 µM in series [4], in series [5] and in series [6] were 1.67 h, 1.1 h and 1.58 h, respectively. The same compound showed a GI50 with Z-138 of 20 nM.
`Nc1nc2c(ncn2[C@@H]2O[C@H](COP(=O)(O)OP(=O)(O)OP(=O)(O)O)[C@@H](O)[C@@]23CCO3)c(=O)[nH]1` gave an IC50 in [12] of 10000 nM.
Broadly, the Tmax is the time at which the peak concentration occurs. Usually AUC(0-t) stands for exposure summed from dosing to a finite time, without extrapolation to infinity. As to `CO[C@H]1C[C@@H](C)C/C(C)=C/[C@@H](C/C=C/C2(O)COC2)C(=O)C[C@H](O)[C@@H](C)[C@@H](/C(C)=C/[C@@H]2CC[C@@H](O)[C@H](OC)C2)OC(=O)[C@@H]2CCCCN2C(=O)C(=O)[C@]2(O)O[C@H]1[C@@H](OC)C[C@H]2C`, in [13], the time of peak concentration (Tmax) was 1 h. Also, the AUC(0-t) in series [14] was found to be 49100 ng·h/mL.
Regarding `CC(=O)N1CCC(c2cc(Nc3cc(C#N)ccn3)nc(N3CCC(F)(F)C3)c2)CC1`, the concentration for half-maximal inhibition (IC50) in series [15] amounted to 180 nM.
Consider `CC1(C)CCC(c2ccc(Cl)cc2)=C(CN2CCN(c3ccc(C(=O)NS(=O)(=O)c4ccc(OCC5(CN6CC(F)(F)C6)COC5)c(S(=O)(=O)C(F)(F)F)c4)cc3)CC2)C1`, for which the IC50 in series [7] came to 105 nM; in [16] it was 17.3 nM.
Turning to `C=CC[C@@H]1/C=C(\C)C[C@H](C)C[C@H](OC)[C@H]2O[C@@](O)(C(=O)C(=O)N3CCCC[C@H]3C(=O)O[C@H](/C(C)=C/[C@@H]3CC[C@@H](O)[C@H](OC)C3)[C@H](C)[C@@H](O)CC1=O)[C@H](C)C[C@@H]2OC` [TACROLIMUS ANHYDROUS], in series [13], the Tmax is 1 h. Moreover, the exposure AUC(0-t) in [14] was determined as 2490 ng·h/mL. The same compound displayed a solubility in series [17] of 28 µM (≈ 22.5 µg/mL). The microsomal CLint in series [18] amounted to 306 µL/min/mg.
On to `CC(C)(O)C#Cc1cnc2c(c1)[C@]1(COC(N)=N1)c1cc(-c3cccnc3F)ccc1O2`, for which, in series [1], the apparent permeability (Papp) was 11 ×10⁻⁶ cm/s. The bioavailability in series [19] came to 101%; in series [20] it was 70%.
Broadly, the EC50 is the concentration giving half of the maximal effect. With `O=C(NC1CC1)c1cc2c(s1)-c1ccccc1N(C(=O)c1ccc(NC(=O)c3cccnc3N3CCC4(CC3)COC4)cc1)CC2`, the 50% effective concentration (EC50) in the series on Human orthopneumovirus was over 100000 nM.
As to `COc1cc(C(F)(F)F)ccc1COc1cccc(N2C=NN(Cc3nc4c(F)cc(C(=O)O)cc4n3C[C@@H]3CCO3)CC2)n1`, the microsomal CLint in series [2] came to 12 µL/min/mg. Moreover, the CLH in series [21] is 12 µL/min/mg.
